Laboratory results published in patent US10857209B2, “Lysosomal acid lipase and PPAR gamma ligands as immune therapies for cancer treatment” (Indiana University Research and Technology Corporation, priority 2016, dated 2020).

Tests used:
Format in all cases: cell-based, mouse
[1] = test system: HD1B cells; test: Mitochondrial membrane potential assay (JC1) in HD1A and HD1B cells; conditions: for mitochondrial membrane potential (JC-1 staining): NAC 100 μM or Tempol 10 μM overnight
Procedure: (§1) HD1A and HD1B cells were grown in 24-well plates to the desired confluence. Cells were treated with solvent (DMSO, 0.1%), rapamycin (40 nM), or PP242 (40 nM) for 1 hour, or NAC (100 μM, Sigma-Aldrich), or Tempol (10 μM, Sigma-Aldrich) overnight. Treated cells were replaced with the pre-warmed (37° C.) medium containing JC1 (5 μM, Molecular Probes) for 1 hour. Labeled cells were replaced with fresh medium and examined under the Nikon inverted fluorescence microscope.

[2] = test system: mTOR signaling pathway; test: Western blot of mTOR downstream effector S6 phosphorylation in HD1A and HD1B cells
Procedure: HD1A and HD1B cells were lysed in the Cell Lytic M mammalian cell lysis/extraction buffer (Sigma-Aldrich) according to the manufacturer's instruction. Protein samples were fractionated on a Novex 4-20% Tris-Glycine Mini Gel (Invitrogen). After transferring to the polyvinylidene difluoride membrane (Bio-Rad), the membrane was blotted with 5% nonfat dry milk in 1×PBS, and incubated with rabbit anti-p-S6 (Ser235/236), anti-S6, anti-p-Drp1 (Ser616), anti-Drp1, and anti-actin primary antibodies (from Cell Signaling), or rat anti-LAMP1, rabbit anti-Opa1 antibodies (from Santa Cruz). Following incubation with the secondary antibody that conjugated with horse radish peroxidase, proteins were visualized with chemiluminescent substrate (Thermo Scientific) under ChemiDox MP Image System.
as §1

[3] = test system: HD1B cells; test: ROS measurement by flow cytometry in HD1A and HD1B cells; conditions: 40 nM, 60 minutes
Procedure: HD1A and HD1B cells were treated with solvent, rapamycin (40 nM), or PP242 (40 nM) for 60 minutes. Cells were washed and stained with 2 μM of 2′,7′-dichlorodihydrofluorescein diacetate stained (DCFDA, Invitrogen) which is nonfluorescent until the acetate group is removed by intracellular esterases and oxidation occurs within the cell (Invitrogen). The incubation was at 37° C. for 20 minutes, followed by washing with cold PBS. The ROS level was measured by flow cytometry.

SMILES | mitochondrial membrane potential (JC-1 staining) [1] | mTOR downstream effector S6 phosphorylation [2] | ROS production [3] | mitochondrial membrane potential (JC1 staining) ([1]; mTOR inhibitor 40 nM, 1 hour)
CC(=O)N[C@@H](CS)C(=O)O [NAC] | partially improved the condition of the mitochondrial membrane potential |  |  | 
CC(C)n1nc(-c2cc3cc(O)ccc3[nH]2)c2c(N)ncnc21 [PP242] |  | blocked mTOR downstream effector S6 phosphorylation | decreased ROS production | reversed the damaged mitochondrial membrane potential
CC1(C)CC(O)CC(C)(C)N1[O] [TEMPOL] | partially improved the condition of the mitochondrial membrane potential |  |  | 
